Test results as given in US20240145031A1, “Methods and devices for drug repositioning and drug repurposing as nuclear receptor modulators” (Precision Medicine Lab, priority 2022, published 2024).
Where two headings read alike, the source gives them in different places. Values belong to the molecule of their own block, whether it stands above or below them.

Key:
[1] = biological target: T1, glucocorticoid receptor recombinant human protein, ligand binding domain (LBD) (Homo sapiens, UniProt P04150); test: nuclear receptor cofactor recruitment peptide array (70 coregulator peptides), ligand induced cofactor peptide interaction profiling; type: biochemical; details: for weighted log fold change: example 3, weight factors of table 7
T1 construct: purchased Thermo Fisher Scientific A15668
T1 sequence (P04150 524-758 limits assumed): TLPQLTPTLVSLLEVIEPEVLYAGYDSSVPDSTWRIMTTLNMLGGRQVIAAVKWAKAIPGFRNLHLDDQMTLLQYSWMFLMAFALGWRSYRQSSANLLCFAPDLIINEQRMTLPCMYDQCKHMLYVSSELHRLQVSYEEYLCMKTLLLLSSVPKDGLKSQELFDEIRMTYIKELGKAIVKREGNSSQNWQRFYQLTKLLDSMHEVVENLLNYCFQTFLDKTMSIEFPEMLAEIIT
Experimental: Interactions between the glucocorticoid receptor ligand binding domain and the selected drugs for repurposing and coregulator peptides were determined using the method as described by Zalachoras et al 2013^xxvii Each peptide array consisting of 70 coregulator peptides as described in table 1 were incubated with a reaction mixture of 1 nM purified glucocorticoid receptor recombinant human protein, ligand binding domain (LBD), (Thermo Fisher Scientific, cat #A15668), ALEXA488-conjugated anti-GST antibody and buffer F (PV4689, A-11131, and PV4547; Invitrogen). […] For ligand induced cofactor peptide interaction profiling the set of repurposing drugs were tested at a concentration of 0.05 mM compared to solvent (2% DMSO in water). Incubation was performed at 20° C. on the cofactor peptide array. Glucocorticoid receptor binding to each peptide on the array, reflected by fluorescent signal, was quantified by image analysis using R-based software (Precision Medicine Lab). The 70 coregulator peptides used represent a range of coregulator nuclear receptor-boxes known to interact with the glucocorticoid receptor and other nuclear receptors. The binding profiles were generated for glucocorticoid receptor-LBD treated with the repurposing drugs vs cortisol.
The R2 is calculated using the data for each of the 70 cofactor peptides using the same weight.
In this example a weight factor was applied on the log fold change data of example 1 to determine the similarities between the tested repositioning drugs versus cortisol using the coefficient of determination, R2, between the weighted log fold change data of the tested repurposing drug to the positive control, cortisol. […] In this example 14 cofactor peptides were used (table 3).

[2] = biological target: T1, glucocorticoid receptor recombinant human protein, ligand binding domain (LBD); test: as above; type: biochemical; details: example 3, weight factors of table 7

Molecule: C[C@]12CCC(=O)C=C1CC[C@@H]1[C@@H]2[C@@H](O)C[C@@]2(C)[C@H]1CC[C@]2(O)C(=O)CO [PC, Cortisol]
binding to coregulator peptide no 22 NCOA1_1421_1444 compared to the negative control (NC), DMSO ([1]; FIG. 2, 0.05 mM): increased binding | weighted log fold change ([1]; peptide 24 NCOA1_738_759): 0.168 | weighted log fold change ([1]; peptide 26 NCOA2_679_700): 0.056 | weighted log fold change ([1]; peptide 27 NCOA2_734_755): 0.366 | weighted log fold change ([1]; peptide 52 PELP1_21_42): 0.028 | weighted log fold change ([1]; peptide 58 PRGC1_134_154): 0.835 | weighted log fold change ([1]; peptide 59 PRGC2_146_166): 0.113 | weighted log fold change ([1]; peptide 63 TIF1A_748_769): 0.058 | weighted log fold change ([1]; peptide 68 UBE3A_650_671): 0.357 | weighted log fold change ([1]; peptide 70 ZNHI3_90_111): 0.025 | log fold change ([1]; example 4, weight factor of 1, peptide 11 IKBB_278_299): 0.611 | log fold change ([1]; example 4, weight factor of 1, peptide 27 NCOA2_734_755): 1.465 | log fold change ([1]; example 4, weight factor of 1, peptide 59 PRGC2_146_166): 0.902 | log fold change ([1]; example 4, weight factor of 1, peptide 68 UBE3A_650_671): 1.430 | log fold change ([1]; peptide 1 ANDR_11_32, 0.05 mM vs solvent (2% DMSO)): 0.549 | log fold change ([1]; peptide 2 CBP_2056_2077, 0.05 mM vs solvent (2% DMSO)): 0.473 | log fold change ([1]; peptide 3 CENPR_159_177, 0.05 mM vs solvent (2% DMSO)): 0.669 | log fold change ([1]; peptide 4 CHD9_1024_1045, 0.05 mM vs solvent (2% DMSO)): 0.375 | log fold change ([1]; peptide 5 CNOT1_141_162, 0.05 mM vs solvent (2% DMSO)): 0.446 | log fold change ([1]; peptide 6 CNOT1_558_579, 0.05 mM vs solvent (2% DMSO)): 0.386 | log fold change ([1]; peptide 7 DHX30_49_70, 0.05 mM vs solvent (2% DMSO)): 0.446 | log fold change ([1]; peptide 8 EP300_2040_2061, 0.05 mM vs solvent (2% DMSO)): 0.383 | log fold change ([1]; peptide 9 EP300_70_91, 0.05 mM vs solvent (2% DMSO)): 0.813 | log fold change ([1]; peptide 11 IKBB_278_299, 0.05 mM vs solvent (2% DMSO)): 0.611 | log fold change ([1]; peptide 13 KMT2D_2674_2695, 0.05 mM vs solvent (2% DMSO)): 0.589 | log fold change ([1]; peptide 14 LCOR_41_62, 0.05 mM vs solvent (2% DMSO)): 1.238 | log fold change ([1]; peptide 15 MAPE_250_271, 0.05 mM vs solvent (2% DMSO)): 0.090 | log fold change ([1]; peptide 16 MAPE_301_322, 0.05 mM vs solvent (2% DMSO)): −0.294 | log fold change ([1]; peptide 17 MED1_593_614, 0.05 mM vs solvent (2% DMSO)): 0.949 | log fold change ([1]; peptide 18 MEN1_256_277, 0.05 mM vs solvent (2% DMSO)): 0.192 | log fold change ([1]; peptide 19 MGMT_87_108, 0.05 mM vs solvent (2% DMSO)): 0.250 | log fold change ([1]; peptide 20 MLL2_4176_4197, 0.05 mM vs solvent (2% DMSO)): 0.650 | log fold change ([1]; peptide 21 MLL2_4703_4724, 0.05 mM vs solvent (2% DMSO)): 0.531 | log fold change ([1]; peptide 22 NCOA1_1421_1441, 0.05 mM vs solvent (2% DMSO)): 1.715 | log fold change ([1]; peptide 23 NCOA1_679_700, 0.05 mM vs solvent (2% DMSO)): 1.097 | log fold change ([1]; peptide 24 NCOA1_738_759, 0.05 mM vs solvent (2% DMSO)): 1.340 | log fold change ([1]; peptide 25 NCOA2_630_651, 0.05 mM vs solvent (2% DMSO)): 1.253 | log fold change ([1]; peptide 26 NCOA2_679_700, 0.05 mM vs solvent (2% DMSO)): 1.777 | log fold change ([1]; peptide 27 NCOA2_734_755, 0.05 mM vs solvent (2% DMSO)): 1.465 | log fold change ([1]; peptide 28 NCOA2_867_888, 0.05 mM vs solvent (2% DMSO)): 0.263 | log fold change ([1]; peptide 29 NCOA3_610_631, 0.05 mM vs solvent (2% DMSO)): 1.176 | log fold change ([1]; peptide 30 NCOA3_674_695, 0.05 mM vs solvent (2% DMSO)): 0.197 | log fold change ([1]; peptide 31 NCOA3_726_747, 0.05 mM vs solvent (2% DMSO)): 1.029 | log fold change ([1]; peptide 32 NCOA4_316_337, 0.05 mM vs solvent (2% DMSO)): 0.839 | log fold change ([1]; peptide 34 NCOR1_1925_1946, 0.05 mM vs solvent (2% DMSO)): 0.398 | log fold change ([1]; peptide 35 NCOR1_2040_2061, 0.05 mM vs solvent (2% DMSO)): 0.391 | log fold change ([1]; peptide 36 NELFB_329_350, 0.05 mM vs solvent (2% DMSO)): 0.195 | log fold change ([1]; peptide 38 NR0B1_2_23, 0.05 mM vs solvent (2% DMSO)): 0.415 | log fold change ([1]; peptide 39 NR0B2_107_128, 0.05 mM vs solvent (2% DMSO)): 1.538 | log fold change ([1]; peptide 41 NRIP1_174_195, 0.05 mM vs solvent (2% DMSO)): 0.213 | log fold change ([1]; peptide 42 NRIP1_369_390, 0.05 mM vs solvent (2% DMSO)): 1.027 | log fold change ([1]; peptide 43 NRIP1_489_510, 0.05 mM vs solvent (2% DMSO)): 0.954 | log fold change ([1]; peptide 44 NRIP1_701_722, 0.05 mM vs solvent (2% DMSO)): 0.609 | log fold change ([1]; peptide 45 NRIP1_810_831, 0.05 mM vs solvent (2% DMSO)): 0.909 | log fold change ([1]; peptide 46 NRIP1_925_946, 0.05 mM vs solvent (2% DMSO)): 0.970 | log fold change ([1]; peptide 47 NSD1_895_916, 0.05 mM vs solvent (2% DMSO)): 0.886 | log fold change ([1]; peptide 48 PAGR1_103_124, 0.05 mM vs solvent (2% DMSO)): 1.057 | log fold change ([1]; peptide 49 PAK6_249_270, 0.05 mM vs solvent (2% DMSO)): 0.362 | log fold change ([1]; peptide 50 PCAF_179_200, 0.05 mM vs solvent (2% DMSO)): 0.771 | log fold change ([1]; peptide 51 PELP1_169_190, 0.05 mM vs solvent (2% DMSO)): 0.496 | log fold change ([1]; peptide 52 PELP1_21_42, 0.05 mM vs solvent (2% DMSO)): 0.888 | log fold change ([1]; peptide 53 PELP1_447_468, 0.05 mM vs solvent (2% DMSO)): 0.771 | log fold change ([1]; peptide 54 PIAS2_7_28, 0.05 mM vs solvent (2% DMSO)): 0.383 | log fold change ([1]; peptide 55 PNRC1_306_327, 0.05 mM vs solvent (2% DMSO)): 0.568 | log fold change ([1]; peptide 56 PPRC1_152_173, 0.05 mM vs solvent (2% DMSO)): 0.380 | log fold change ([1]; peptide 57 PR285_1106_1127, 0.05 mM vs solvent (2% DMSO)): 1.167 | log fold change ([1]; peptide 58 PRGC1_134_154, 0.05 mM vs solvent (2% DMSO)): 1.669 | log fold change ([1]; peptide 59 PRGC2_146_166, 0.05 mM vs solvent (2% DMSO)): 0.902 | log fold change ([1]; peptide 60 PRGC2_338_358, 0.05 mM vs solvent (2% DMSO)): 1.230 | log fold change ([1]; peptide 61 PROX1_58_79, 0.05 mM vs solvent (2% DMSO)): 0.547 | log fold change ([1]; peptide 62 RAD9A_349_370, 0.05 mM vs solvent (2% DMSO)): 0.503 | log fold change ([1]; peptide 63 TIF1A_748_769, 0.05 mM vs solvent (2% DMSO)): 0.930 | log fold change ([1]; peptide 64 TIP60_477_498, 0.05 mM vs solvent (2% DMSO)): 0.672 | log fold change ([1]; peptide 65 TREF1_169_190, 0.05 mM vs solvent (2% DMSO)): 0.886 | log fold change ([1]; peptide 66 TRRAP_972_993, 0.05 mM vs solvent (2% DMSO)): 1.371 | log fold change ([1]; peptide 67 TRXR1_133_154, 0.05 mM vs solvent (2% DMSO)): 0.623 | log fold change ([1]; peptide 68 UBE3A_650_671, 0.05 mM vs solvent (2% DMSO)): 1.430 | log fold change ([1]; peptide 69 WIPI1_120_141, 0.05 mM vs solvent (2% DMSO)): 1.049 | log fold change ([1]; peptide 70 ZNHI3_90_111, 0.05 mM vs solvent (2% DMSO)): 0.814 | weighted log fold change ([2]; peptide 22 NCOA1_1421_1441): 1.715 | weighted log fold change ([2]; peptide 31 NCOA3_726_747): 0.515 | weighted log fold change ([2]; peptide 39 NR0B2_107_128): 0.769 | weighted log fold change ([2]; peptide 42 NRIP1_369_390): 0.128 | weighted log fold change ([2]; peptide 45 NRIP1_810_831): 0.057

binding to coregulator peptide no 22 NCOA1_1421_1444 compared to the negative control (NC), DMSO [1]: increased binding
Molecule: Dexamethasone [Drug 3]
